Measurements as given in patent publication US9314024B2, “Herbicidal compositions comprising aminopyralid and bentazon” (Dow AgroSciences LLC, priority 2012, dated 2016).

Assays:
Experiment in all cases: Postemergence herbicidal activity, field trial in rice, Espinal, Colombia
Conditions in all cases: 29 DAA, postemergence foliar
[1] = tested on: Corchorus spp (jute, CRGSS); assay type: in vivo, Corchorus sp
Description: (§1) These trials were conducted under field conditions in Espinal, Colombia. Trial sites were located in commercially grown fields of common rice (Oryza sativa). The rice crop was grown using normal cultural practices for fertilization, seeding, and maintenance to ensure good growth of the crop and the weeds. The trials were conducted using normal research methodology. Trial plots were 2 meters (m) wide by 5 m long. All treatments were applied using a randomized complete block trial design with 4 replications per treatment. The trial sites had naturally occurring populations of weeds. The weed spectrum included, but was not limited to, Cyperus iria L. (rice flatsedge, CYPIR), Phyllanthus niruri L. (gripeweed, PYLNI) and Corchorus spp (jute, CRGSS). The plots were treated with a postemergence foliar application 19 days after emergence of the rice.
(§2) Treatments consisted of tank mixes of aminopyralid triisopropanolammonium salt (MILESTONE 240SL) and commercially available formulations of bentazon herbicide (BASAGRAN 480SL). The application volume was 200 liters per hectare (L/ha) of water. All application were made using precision gas hand sprayers with a 2 m boom using flat fan (8002) nozzles to broadcast the treatments over the top of the rice and weeds.
(§3) The treated plots and control plots were rated blind at various intervals after application. Ratings were based on Percent (%) Visual weed control, where 0 corresponds to no injury and 100 corresponds to complete kill.
(§4) Colby's equation was used to determine the herbicidal effects expected from the mixtures (Colby, S. R. Calculation of the synergistic and antagonistic response of herbicide combinations. Weeds 1967 15, 20-22).
(§5) The following equation was used to calculate the expected activity of mixtures containing two active ingredients, A and B: Expected=A+B−(A×B/100)
(§6) A=observed efficacy of active ingredient A at the same concentration as used in the mixture;
(§7) B=observed efficacy of active ingredient B at the same concentration as used in the mixture.

[2] = tested on: Cyperus iria L. (rice flatsedge, CYPIR); assay type: in vivo
Description: as §1, §2, §3, §4, §5, §6, §7

[3] = tested on: Phyllanthus niruri L. (gripeweed, PYLNI); assay type: in vivo
Description: as §1, §2, §3, §4, §5, §6, §7

Row | Structure (SMILES) | Visual Weed Control (%) CRGSS Obs ([1]; aminopyralid 4 g ae/ha alone) [%] | Visual Weed Control (%) CRGSS Obs ([1]; aminopyralid 8 g ae/ha alone) [%] | Visual Weed Control (%) CYPIR Obs ([2]; aminopyralid 4 g ae/ha alone) [%] | Visual Weed Control (%) CYPIR Obs ([2]; aminopyralid 8 g ae/ha alone) [%] | Visual Weed Control (%) CYPIR Obs ([2]; aminopyralid 16 g ae/ha alone) [%] | Visual Weed Control (%) PYLNI Obs ([3]; aminopyralid 4 g ae/ha alone) [%] | Visual Weed Control (%) PYLNI Obs ([3]; aminopyralid 8 g ae/ha alone) [%] | Visual Weed Control (%) PYLNI Obs ([3]; aminopyralid 16 g ae/ha alone) [%] | Visual Weed Control (%) CRGSS Obs ([1]; bentazon 180 g ai/ha alone) [%] | Visual Weed Control (%) CYPIR Obs ([2]; bentazon 180 g ai/ha alone) [%] | Visual Weed Control (%) PYLNI Obs ([3]; bentazon 180 g ai/ha alone) [%]
1 | Nc1cc(Cl)nc(C(=O)O)c1Cl [Aminopyralid, 4-amino-3,6-dichloro-2-pyridinecarboxylic acid] | 48 | 70 | 0 | 0 | 41 | 0 | 0 | 0 | – | – | –
2 | CC(C)N1C(=O)c2ccccc2NS1(=O)=O [Bentazon, 3-(1-methylethyl)-1H-2,1,3-benzothiadiazin-4(3H)-one 2,2-dioxide] | – | – | – | – | – | – | – | – | 80 | 74 | 19
